Assay results reported in US6603058B1, “Non-human animal model for obesity and uses thereof” (Oklahoma Medical Research Foundation, priority 1998, dated 2003).

Columns and labels:
Type in all cases: in vivo, mouse
[1] = Daily intraperitoneal MSH analog treatment of POMC homozygous mutant and wildtype female mice: body weight change and food intake; conditions: for weight loss, share of excess weight: mutant female mice, 1 microgram (~1 nmol) i.p. daily; for weight loss in wildtype mice: wildtype non-obese littermates, peripheral (i.p.) daily treatment
Protocol: To initially test for the effect of peripheral melanocortins on weight change, we selected the stable agonist [Ac-Cys^4, D-Phe^7, Cys^10] αMSH (4-13)(described in Cody et al., 1985, J. Med. Chem. 28, 583-588; incorporated herein by reference in its entirety). Briefly, [Ac-Cys^4,D-Phe^7, Cys^10] α-MSH (4-13) amide was obtained from Peninsula Laboratories, CA. Lyophilized powder was dissolved in water at 1 mg/ml, which was diluted in PBS to 10 μg/mL. During the experiments, mice were maintained on a normal 12h/12h light/dark cycle with food and water ad libitum. Mice were fed standard laboratory rodent diet (#5001).
In order to see whether the α-MSH analog has an effect on food intake, we compared weight change and food intake in these mice for one week (see bars in FIGS. 4A and 4B) under MSH analog treatment and after MSH analog treatment was stopped (FIGS. 4C and 4D). During one week under MSH analog treatment mutant mice lost 0.5 g, while wildtype littermates gained 0.3 g; the food intake during this time was equivalent in both groups (20.7 g in wildtypes, and 22.7 g in mutants).

[2] = Weight change and food intake in wildtype and POMC null mutant mice under standard diet, standard diet plus MSH analog, or high fat diet; conditions: for food intake, standard diet v. standard diet & MSH analog treatment / weight change, standard diet v. standard diet & MSH analog treatment: MSH analog i.p. 1 or 2 μg once daily
Protocol: P values were determined by ANOVA. If the major component of weight regulation through the melanocortinergic pathway was the regulation of feeding behavior, the observed changes in body weight in POMC null mutant mice should be paralleled by a similar pattern in food uptake. This, however, was not observed (FIGS. 5B and 5D and Table 1).

[3] = Coat pigmentation of mice treated with MSH for two weeks
Description: An effect of MSH could also be seen on coat pigmentation. […] Yellow coat pigmentation gradually reappeared after MSH treatment was terminated (data not shown).

[4] = both on standard diet & MSH analog treatment

Substance: [Ac-Cys^4,D-Phe^7, Cys^10] α-MSH (4-13) amide [MSH analog]
- weight loss, share of excess weight ([1]; by 2 weeks): 46 % of excess weight
- weight loss, share of excess weight ([1]; within one week): 38 % of excess weight
- body weight gained in one week after MSH analog treatment had been stopped for two weeks ([1]; mutant mice): 1.7 g
- food intake during one week under MSH analog treatment ([1]; mutant mice): 22.7 g
- food intake in one week after MSH analog treatment had been stopped for two weeks ([1]; mutant mice): 35.7 g
- time after stop of MSH injections until mutant mice started to gain weight ([1]; mutant mice): about 10 days
- loss of excess weight after two weeks (summary statement) ([1]; mutant mice treated peripherally): over 40 % of excess weight
- body weight lost during one week under MSH analog treatment ([1]; mutant mice, second week of treatment): 0.5 g
- difference in food intake, mutants over wildtypes, after treatment stopped for two weeks ([1]; one week, p<0.005): 11.5 g
- body weight gained in one week after MSH analog treatment had been stopped for two weeks ([1]; wildtype littermates): 0.3 g
- body weight gained during one week under MSH analog treatment ([1]; wildtype littermates, second week of treatment): 0.3 g
- food intake during one week under MSH analog treatment ([1]; wildtype mice): 20.7 g
- food intake in one week after MSH analog treatment had been stopped for two weeks ([1]; wildtype mice): 24.2 g
- weight loss in wildtype mice ([1]; listed as MSH-agonist): no significant weight loss
- weight loss in wildtype mice ([1]; listed as stable α-MSH agonist): did not lose significant weight
- food intake, wildtype v. mutant [2, 4]: ↑
- weight change, wildtype v. mutant [2, 4]: ↓
- food intake, standard diet v. standard diet & MSH analog treatment ([2]; mutant mice): decreases food intake and ↓
- weight change, standard diet v. standard diet & MSH analog treatment ([2]; mutant mice): lose excess weight and ↓
- food intake, standard diet v. standard diet & MSH analog treatment ([2]; wildtype mice): decreases food intake and ↓
- weight change, standard diet v. standard diet & MSH analog treatment ([2]; wildtype mice): ←→
- effect on coat pigmentation [3]: lost their yellowish tinge
